Laboratory results published in ChEMBL document CHEMBL3588806, “Generation of Broad-Spectrum Antifungal Drug Candidates from the Natural Product Compound Aureobasidin A” (ACS Med Chem Lett, 2015).
In brackets after ≈: the same amount, converted by molar mass. Each block holds one compound with its values, some of them ahead of it. Activity calls are given as the source filed them. The calls are words filed in the database; no cut-off is given here. Starred links: 1 amine or outer side, 2 acyl side, 3 side chain; linkers in the order of their positions; H or OH if unused. Non-standard residues stand in square brackets, D forms with d. Residues, ends and D or L forms follow the SMILES beside them. X4 = CN([C@@H](Cc1cccc(-c2ccc(-c3ccccc3)cc2)c1)C(=O)[*:2])[*:1]; NMePhe(3-(3-pyridyl)) = CN[C@@H](Cc1cccc(-c2cccnc2)c1)C(=O)O; X11 = CN([C@@H](Cc1ccc(-c2cccnc2)cc1)C(=O)[*:2])[*:1]; X9 = CN([C@@H](Cc1cccc(-c2ccncc2)c1)C(=O)[*:2])[*:1]; NMePhe(3-Br) = CN[C@@H](Cc1cccc(Br)c1)C(=O)O; Hmp(2R,3S) = CC[C@H](C)[C@@H](O)C(=O)O; NMeVal(β-OH) = CN[C@H](C(=O)O)C(C)(C)O; NMeV = CN[C@H](C(=O)O)C(C)C

Assays:
Assay type in all cases: functional
[1] = Ratio of MIC for Aspergillus fumigatus to MIC for Candida albicans
[2] = test system: Candida albicans; experiment: Antifungal activity against Candida albicans by broth dilution method
[3] = test system: Aspergillus fumigatus; experiment: Antifungal activity against Aspergillus fumigatus by broth dilution method
[4] = test system: Sporothrix schenckii; experiment: Antifungal activity against Sporothrix schenckii ATCC 14284 by broth dilution method
[5] = test system: Trichophyton mentagrophytes; experiment: Antifungal activity against Trichophyton mentagrophytes ATCC MYA-4439 by broth dilution method
[6] = test system: Trichophyton mentagrophytes; experiment: Antifungal activity against Trichophyton mentagrophytes ATCC 28185 by broth dilution method
[7] = test system: Trichophyton rubrum; experiment: Antifungal activity against Trichophyton rubrum ATCC MYA-4438 by broth dilution method
[8] = test system: Candida albicans; experiment: Antifungal activity against Candida albicans ATCC 90028 by broth dilution method
[9] = test system: Candida albicans; experiment: Antifungal activity against Candida albicans ATCC 90029 by broth dilution method
[10] = test system: Candida albicans; experiment: Antifungal activity against Candida albicans ATCC 10231 by broth dilution method
[11] = test system: Candida albicans; experiment: Antifungal activity against Candida albicans ATCC 204276 by broth dilution method
[12] = test system: Candida albicans; experiment: Antifungal activity against Candida albicans ATCC MYA-2732 by broth dilution method
[13] = test system: Candida albicans; experiment: Antifungal activity against Candida albicans ATCC 24433 by broth dilution method
[14] = test system: Meyerozyma guilliermondii; experiment: Antifungal activity against Candida guilliermondii ATCC 34134 by broth dilution method
[15] = test system: Pichia kudriavzevii; experiment: Antifungal activity against Candida krusei ATCC 14243 by broth dilution method
[16] = test system: Clavispora lusitaniae; experiment: Antifungal activity against Candida lusitaniae ATCC 66035 by broth dilution method
[17] = test system: Candida parapsilosis; experiment: Antifungal activity against Candida parapsilosis ATCC 90018 by broth dilution method; conditions: Lodderomyces parapsilosis
[18] = test system: Candida parapsilosis; experiment: Antifungal activity against Candida parapsilosis ATCC 22019 by broth dilution method; conditions: Lodderomyces parapsilosis
[19] = test system: Nakaseomyces glabratus; experiment: Antifungal activity against Candida glabrata ATCC 90030 by broth dilution method
[20] = test system: Candida tropicalis; experiment: Antifungal activity against Candida tropicalis ATCC 750 by broth dilution method
[21] = test system: Candida tropicalis; experiment: Antifungal activity against Candida tropicalis ATCC 90874 by broth dilution method
[22] = test system: Cryptococcus neoformans; experiment: Antifungal activity against Cryptococcus neoformans ATCC […] by broth dilution method
[23] = test system: Pichia kudriavzevii; experiment: Antifungal activity against Issatchenkia orientalis ATCC 6258 by broth dilution method
[24] = test system: Saccharomyces cerevisiae; experiment: Antifungal activity against Saccharomyces cerevisiae ATCC 7754 by broth dilution method
[25] = test system: Aspergillus fumigatus; experiment: Antifungal activity against Aspergillus fumigatus ATCC 20435 by broth dilution method
[26] = test system: Aspergillus fumigatus; experiment: Antifungal activity against Aspergillus fumigatus ATCC MYA-32626 by broth dilution method
[27] = test system: Aspergillus flavus; experiment: Antifungal activity against Aspergillus flavus ATCC 204304 by broth dilution method
[28] = test system: Aspergillus flavus; experiment: Antifungal activity against Aspergillus flavus ATCC 22546 by broth dilution method
[29] = test system: Aspergillus flavus; experiment: Antifungal activity against Aspergillus flavus ATCC 64025 by broth dilution method
[30] = test system: Aspergillus candidus; experiment: Antifungal activity against Aspergillus candidus ATCC 13686 by broth dilution method
[31] = test system: Aspergillus clavatus; experiment: Antifungal activity against Aspergillus clavatus ATCC 10058 by broth dilution method
[32] = test system: Aspergillus niger; experiment: Antifungal activity against Aspergillus niger ATCC 16888 by broth dilution method
[33] = test system: Aspergillus niger; experiment: Antifungal activity against Aspergillus niger ATCC 64028 by broth dilution method
[34] = test system: Aspergillus ochraceus; experiment: Antifungal activity against Aspergillus ochraceus ATCC 96919 by broth dilution method
[35] = test system: Aspergillus nidulans; experiment: Antifungal activity against Emericella nidulans ATCC 96921 by broth dilution method
[36] = test system: Fusarium oxysporum; experiment: Antifungal activity against Fusarium oxysporum ATCC 48112 by broth dilution method
[37] = test system: Rhizopus arrhizus; experiment: Antifungal activity against Rhizopus oryzae ATCC 11886 by broth dilution method

- MIC [2]: 5 µg/mL (≈ 4.35 µM)
- MIC [3]: 10 µg/mL (≈ 8.71 µM)
Structure (SMILES): CC[C@H](C)[C@@H]1NC(=O)[C@@H]2CCCN2C(=O)[C@H](Cc2cccc(Br)c2)N(C)C(=O)[C@H](CC(=O)O)NC(=O)[C@H](C(C)C)N(C)C(=O)[C@@H]([C@@H](C)CC)OC(=O)[C@H](C(C)(C)O)N(C)C(=O)[C@H](CC(C)C)NC(=O)[C@H](C(C)C)N(C)C1=O (cyclo(D[NMePhe(3-Br)]PI[NMeV]L[NMeVal(β-OH)][Hmp(2R,3S)][NMeV]))

- MIC [2]: < 5 µg/mL
- MIC [3]: > 5 µg/mL
Structure (SMILES): CC[C@H](C)[C@@H]1NC(=O)[C@@H]2CCCN2C(=O)[C@H](Cc2cccc(-c3ccc(-c4ccccc4)cc3)c2)N(C)C(=O)[C@H](Cc2ccccc2)NC(=O)[C@H](C(C)C)N(C)C(=O)[C@@H]([C@@H](C)CC)OC(=O)[C@H](C(C)(C)O)N(C)C(=O)[C@H](CC(C)C)NC(=O)[C@H](C(C)C)N(C)C1=O (cyclo(F[X4]PI[NMeV]L[NMeVal(β-OH)][Hmp(2R,3S)][NMeV]))

- MIC [2]: 0.031 µg/mL (≈ 0.0263 µM)
- MIC [3]: 2.5 µg/mL (≈ 2.12 µM)
Structure (SMILES): CC[C@H](C)[C@@H]1NC(=O)[C@@H]2CCCN2C(=O)[C@H](Cc2cccc(Br)c2)N(C)C(=O)[C@H](Cc2ccccc2)NC(=O)[C@H](C(C)C)N(C)C(=O)[C@@H]([C@@H](C)CC)OC(=O)[C@H](C(C)(C)O)N(C)C(=O)[C@H](CC(C)C)NC(=O)[C@H](C(C)C)N(C)C1=O (cyclo(F[NMePhe(3-Br)]PI[NMeV]L[NMeVal(β-OH)][Hmp(2R,3S)][NMeV]))

Second part, the compound before the results:

Structure (SMILES): CC[C@H](C)[C@@H]1NC(=O)[C@@H]2CCCN2C(=O)[C@H](Cc2cccc(-c3ccncc3)c2)N(C)C(=O)[C@H](Cc2ccccc2)NC(=O)[C@H](C(C)C)N(C)C(=O)[C@@H]([C@@H](C)CC)OC(=O)[C@H](C(C)(C)O)N(C)C(=O)[C@H](CC(C)C)NC(=O)[C@H](C(C)C)N(C)C1=O (cyclo(F[X9]PI[NMeV]L[NMeVal(β-OH)][Hmp(2R,3S)][NMeV]))
- Ratio [1]: > 10
- MIC [2]: < 0.025 µg/mL
- MIC [3]: < 1.25 µg/mL

Structure (SMILES): CC[C@H](C)[C@@H]1NC(=O)[C@@H]2CCCN2C(=O)[C@H](Cc2ccc(-c3cccnc3)cc2)N(C)C(=O)[C@H](Cc2ccccc2)NC(=O)[C@H](C(C)C)N(C)C(=O)[C@@H]([C@@H](C)CC)OC(=O)[C@H](C(C)(C)O)N(C)C(=O)[C@H](CC(C)C)NC(=O)[C@H](C(C)C)N(C)C1=O (cyclo(F[X11]PI[NMeV]L[NMeVal(β-OH)][Hmp(2R,3S)][NMeV]))
- Activity [2]: Active
- MIC [3]: < 2.5 µg/mL

Structure (SMILES): CC[C@H](C)[C@@H]1NC(=O)[C@@H]2CCCN2C(=O)[C@H](Cc2cccc(-c3cccnc3)c2)N(C)C(=O)[C@H](Cc2ccccc2)NC(=O)[C@H](C(C)C)N(C)C(=O)[C@@H]([C@@H](C)CC)OC(=O)[C@H](C(C)(C)O)N(C)C(=O)[C@H](CC(C)C)NC(=O)[C@H](C(C)C)N(C)C1=O (cyclo(F[NMePhe(3-(3-pyridyl))]PI[NMeV]L[NMeVal(β-OH)][Hmp(2R,3S)][NMeV]))
- MIC [4]: > 64 µg/mL
- MIC [5]: 0.5 µg/mL (≈ 0.424 µM)
- MIC [6]: 1 µg/mL (≈ 0.849 µM)
- MIC [7]: 2 µg/mL (≈ 1.7 µM)
- MIC [8]: 0.015 µg/mL (≈ 0.0127 µM)
- MIC [9]: 0.5 µg/mL (≈ 0.424 µM)
- MIC [10]: 1 µg/mL (≈ 0.849 µM)
- MIC [11]: 0.03 µg/mL (≈ 0.0255 µM)
- MIC [12]: 0.03 µg/mL (≈ 0.0255 µM)
- MIC [13]: 0.125 µg/mL (≈ 0.106 µM)
- MIC [14]: 0.03 µg/mL (≈ 0.0255 µM)
- MIC [15]: 0.06 µg/mL (≈ 0.0509 µM)
- MIC [16]: 0.125 µg/mL (≈ 0.106 µM)
- MIC [17]: 0.03 µg/mL (≈ 0.0255 µM)
- MIC [18]: 0.06 µg/mL (≈ 0.0509 µM)
- MIC [19]: 0.03 µg/mL (≈ 0.0255 µM)
- MIC [20]: 0.03 µg/mL (≈ 0.0255 µM)
- MIC [21]: 0.015 µg/mL (≈ 0.0127 µM)
- MIC [22]: 0.03 µg/mL (≈ 0.0255 µM)
- MIC [23]: 0.06 µg/mL (≈ 0.0509 µM)
- MIC [24]: 0.03 µg/mL (≈ 0.0255 µM)
- Ratio [1]: > 10
- MIC [2]: < 0.05 µg/mL
- MIC [3]: < 0.94 µg/mL
- MIC [25]: 1 µg/mL (≈ 0.849 µM)
- MIC [26]: 2 µg/mL (≈ 1.7 µM)
- MIC [27]: 1 µg/mL (≈ 0.849 µM)
- MIC [28]: 2 µg/mL (≈ 1.7 µM)
- MIC [29]: 1 µg/mL (≈ 0.849 µM)
- MIC [30]: 0.008 µg/mL (≈ 0.00679 µM)
- MIC [31]: 0.03 µg/mL (≈ 0.0255 µM)
- MIC [32]: 0.125 µg/mL (≈ 0.106 µM)
- MIC [33]: 0.03 µg/mL (≈ 0.0255 µM)
- MIC [34]: 0.25 µg/mL (≈ 0.212 µM)
- MIC [35]: 0.125 µg/mL (≈ 0.106 µM)
- MIC [36]: > 64 µg/mL
- MIC [37]: > 64 µg/mL

Structure (SMILES): C[C@@H]1[C@H](O)[C@@H](C)/C=C/C=C/C=C/C=C/C=C/C=C/C=C/[C@H](O[C@@H]2O[C@H](C)[C@@H](O)[C@H](N)[C@@H]2O)C[C@@H]2O[C@](O)(C[C@@H](O)C[C@@H](O)[C@H](O)CC[C@@H](O)C[C@@H](O)CC(=O)O[C@H]1C)C[C@H](O)[C@H]2C(=O)O [AMPHOTERICIN B]
- MIC [4]: 0.5 µg/mL (≈ 0.541 µM)
- MIC [5]: 0.06 µg/mL (≈ 0.0649 µM)
- MIC [6]: 0.06 µg/mL (≈ 0.0649 µM)
- MIC [7]: 0.03 µg/mL (≈ 0.0325 µM)
- MIC [8]: 0.03 µg/mL (≈ 0.0325 µM)
- MIC [9]: 0.03 µg/mL (≈ 0.0325 µM)
- MIC [10]: 0.03 µg/mL (≈ 0.0325 µM)
- MIC [11]: 0.06 µg/mL (≈ 0.0649 µM)
- MIC [12]: 0.06 µg/mL (≈ 0.0649 µM)
- MIC [13]: 0.03 µg/mL (≈ 0.0325 µM)
- MIC [14]: 0.008 µg/mL (≈ 0.00866 µM)
- MIC [15]: 0.125 µg/mL (≈ 0.135 µM)
- MIC [16]: 0.015 µg/mL (≈ 0.0162 µM)
- MIC [17]: 0.06 µg/mL (≈ 0.0649 µM)
- MIC [18]: 0.125 µg/mL (≈ 0.135 µM)
- MIC [19]: 0.03 µg/mL (≈ 0.0325 µM)
- MIC [20]: 0.06 µg/mL (≈ 0.0649 µM)
- MIC [21]: 0.06 µg/mL (≈ 0.0649 µM)
- MIC [22]: 0.015 µg/mL (≈ 0.0162 µM)
- MIC [23]: 0.125 µg/mL (≈ 0.135 µM)
- MIC [24]: 0.06 µg/mL (≈ 0.0649 µM)
- MIC [25]: 0.25 µg/mL (≈ 0.271 µM)
- MIC [26]: 0.25 µg/mL (≈ 0.271 µM)
- MIC [27]: 0.25 µg/mL (≈ 0.271 µM)
- MIC [28]: 0.25 µg/mL (≈ 0.271 µM)
- MIC [29]: 0.5 µg/mL (≈ 0.541 µM)
- MIC [30]: 0.03 µg/mL (≈ 0.0325 µM)
- MIC [31]: 0.004 µg/mL (≈ 0.00433 µM)
- MIC [32]: 0.03 µg/mL (≈ 0.0325 µM)
- MIC [33]: 0.015 µg/mL (≈ 0.0162 µM)
- MIC [34]: 0.25 µg/mL (≈ 0.271 µM)
- MIC [35]: 1 µg/mL (≈ 1.08 µM)
- MIC [36]: 1 µg/mL (≈ 1.08 µM)
- MIC [37]: 0.03 µg/mL (≈ 0.0325 µM)
